Measurements: PubChem BioAssay (NCI)
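1) Cells in 96-well plates. 2) Compound, 48 h, 5 concentrations. 3) Linear interpolation between surrounding doses. 4) Unreached endpoint = highest concentration. TGI is the concentration that stops growth completely.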

Legend:
Test in all cases: inhibition of tumour cell growth, NCI panel, 48 h
[1] = test system: SF-539 CNS
[2] = test system: DU-145 prostate
[3] = test system: A549 NSCLC
[4] = test system: PC-3 prostate
[5] = test system: HCT-15 colon
[6] = test system: NCI-H460 lung
[7] = test system: CCRF-CEM leukemia
[8] = test system: K-562 leukemia
[9] = test system: OVCAR-4 ovarian
[10] = test system: 786-0 renal
[11] = test system: SK-MEL-2 melanoma
[12] = test system: A498 renal
[13] = test system: RPMI-8226 leukemia
[14] = test system: HOP-62 NSCLC
[15] = test system: SK-OV-3 ovarian
[16] = test system: HS 578T breast
[17] = test system: SK-MEL-5 melanoma
[18] = test system: SN12C renal
[19] = test system: CAKI-1 renal
[20] = test system: MCF7 breast
[21] = test system: U251 CNS
[22] = test system: SF-295 CNS
[23] = test system: HT29 colon
[24] = test system: HL-60(TB) leukemia
[25] = test system: TK-10 renal
[26] = test system: UACC-257 melanoma
[27] = test system: OVCAR-3 ovarian
[28] = test system: M14 melanoma
[29] = test system: SW-620 colon
[30] = test system: HCC-2998 colon
[31] = test system: EKVX NSCLC
[32] = test system: MDA-MB-231 breast
[33] = test system: BT-549 breast
[34] = test system: IGROV1 ovarian
[35] = test system: SK-MEL-28 melanoma
[36] = test system: COLO 205 colon
[37] = test system: UO-31 renal
[38] = test system: HCT-116 colon
[39] = test system: OVCAR-5 ovarian
[40] = test system: SF-268 CNS
[41] = test system: SNB-75 CNS
[42] = test system: KM12 colon
[43] = test system: MDA-N
[44] = test system: ACHN renal
[45] = test system: LOX IMVI melanoma
[46] = test system: HOP-92 NSCLC
[47] = test system: OVCAR-8 ovarian
[48] = test system: NCI/ADR-RES ovarian
[49] = test system: SR leukemia
[50] = test system: T-47D breast
[51] = test system: MDA-MB-435
[52] = test system: SNB-19 CNS
[53] = test system: MOLT-4 leukemia
[54] = test system: UACC-62 melanoma

`COc1ccc(OC)c2sc(N3C(=O)/C(=C/c4ccc(N(C)C)cc4)N=C3c3ccccc3)nc12` gave a TGI [1] of over 100 µM, a TGI [2] of over 100 µM and a TGI [3] of over 100 µM. For the same compound, the TGI [4] was 81.2 µM, the TGI [5] was over 100 µM and the TGI [6] was over 100 µM. The TGI [7] was 24.5 µM, the TGI [8] was over 100 µM and the TGI [9] was over 100 µM. For the same compound, the TGI [10] was over 100 µM, the TGI [11] was over 100 µM and the TGI [12] was over 100 µM. It also gave a TGI [13] of over 100 µM, a TGI [14] of over 100 µM and a TGI [15] of over 100 µM. It also gave a TGI [16] of over 100 µM, a TGI [17] of over 100 µM and a TGI [18] of over 100 µM. The TGI [19] was over 100 µM, the TGI [20] was 63.4 µM and the TGI [21] was over 100 µM. For the same compound, the TGI [22] was over 100 µM, the TGI [23] was over 100 µM and the TGI [24] was 64.3 µM. The TGI [25] was over 100 µM, the TGI [26] was over 100 µM and the TGI [27] was over 100 µM. For the same compound, the TGI [28] was over 100 µM, the TGI [29] was over 100 µM and the TGI [30] was over 100 µM. The TGI [31] was over 100 µM, the TGI [32] was over 100 µM and the TGI [33] was over 100 µM. It also gave a TGI [34] of over 100 µM, a TGI [35] of over 100 µM and a TGI [36] of over 100 µM. For the same compound, the TGI [37] was over 100 µM, the TGI [38] was over 100 µM and the TGI [39] was over 100 µM. The TGI [40] was over 100 µM, the TGI [41] was over 100 µM and the TGI [42] was over 100 µM. It also gave a TGI [43] of 61.3 µM, a TGI [44] of over 100 µM and a TGI [45] of over 100 µM. For the same compound, the TGI [46] was over 100 µM, the TGI [47] was over 100 µM and the TGI [48] was over 100 µM. For the same compound, the TGI [49] was 74.6 µM, the TGI [50] was over 100 µM and the TGI [51] was over 100 µM. It also gave a TGI [52] of over 100 µM, a TGI [53] of 65.7 µM and a TGI [54] of over 100 µM.
